Patent US7550497B2, “Phosphoramide derivatives” (Palau Pharma, S.A., priority 2002, dated 2009)

Tests used:
[1] = test system: carrageenan-induced paw edema; test: Rat carrageenan-induced paw edema assay; type: in vivo; conditions: male Sprague Dawley rats, 3 mg/kg i.v., 10 min before carrageenan, paw volume 1-4 h
Description: Test 1.—Rat Carrageenan-Induced Paw Edema Assay
Male Sprague Dawley rats (150-175 g) are used. The animals are fasted during 18 hours prior to the experiment and kept with water ad libitum, and are randomly distributed into the different groups of treatment. Inflammation is induced by injecting 0.1 mL of 1% λ-carrageenan solution (Sigma) to the animals' right hindpaw, and the inflammatory response (increase in paw volume) is measured with a plethysmometer (UGO BASILE). Paw volumes are measured just before the administration of test compounds and at 1, 2, 3 and 4 hours after the injection of carrageenan. The compounds are administered through the tail vein, dissolved in DMSO and saline (1 mL/Kg), 10 minutes before the injection of carrageenan. At the same time, 5 mL of water are administered by the oral route in order to facilitate hydration and subsequent inflammatory reaction. The percentages of inhibition of the different treatments tested are calculated by comparing the area under the curve obtained for the treated animals versus the one obtained for the control group. Said areas are obtained by integration from a graphical representation of paw volume versus time.
The results obtained with representative compounds of the present invention are shown in the following table, where the % of inhibition of inflammation at a dose of 3 mg/kg i.v. of test compound are reported.

[2] = test system: carrageenan-induced hyperalgesia; test: Rat carrageenan-induced hyperalgesia test; type: in vivo; conditions: male Sprague Dawley rats, 3 mg/Kg intravenous, especially at 120 min after administration
Description: Test 3.—Rat Carrageenan-Induced Hyperalgesia Test
Male Sprague Dawley rats, randomly distributed into the different groups of treatment, are used. Inflammation is induced by injection of a carrageenan suspension (0.75 mg per paw in 0.05 mL of saline) into the animals' right hind foot pad. One hour 45 min later the test compounds are administered by intravenous route. Two hours after carrageenan injection, hyperalgesia is induced at different times in both hindpaws by using a heat source. At each time, the time of latency till the withdrawal of the paw from the heat source is determined for the control group (vehicle) and the treatment groups, and the result is expressed as the increase of the latency time of the inflammed paw of the treated group versus the control group.

Compound | % inhibition of inflammation (paw volume AUC vs control) [1] [%] | analgesic activity (increase of latency time of the inflamed paw vs control) [2]
CCOP(=O)([O-])NS(=O)(=O)c1ccc(-n2cnc(Cl)c2-c2ccc(OC)c(F)c2)cc1.[Na+] [Example 4, Ethyl N-[4-[4-chloro-5-(3-fluoro-4-methoxyphenyl)imidazol-1-*yl]phenylsulfonyl]phosphoramidate Sodium Salt] | 23.3 | –
COc1ccc(-c2c(Cl)ncn2-c2ccc(S(=O)(=O)NP(=O)(O)O)cc2)cc1F [Example 6, N-[4-[4-Chloro-5-(3-fluoro-4-methoxyphenyl)imidazol-1-yl]phenylsulfonyl]phosphoramidic Acid] | 34.8 | significant analgesic activity
Diethyl N-[4-[4-chloro-5-(3-fluoro methoxyphenyl)imidazol-1-yl]phenylsulfonyl]phosphoramidate [Example 1] | 20.7 | –
